From ChEMBL document CHEMBL1201862, “PubChem BioAssay data set” (2004)
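In this assay, cells in 96-well plates receive the compound at five concentrations for 48 hours. Endpoints are linearly interpolated between the surrounding concentrations. GI50 = concentration required for 50% inhibition of growth.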 Calls of active or inactive are those of the source. No stated cut-off is given here; in the data, active = GI50 up to about 1.1 µM and inactive = higher.

Legend:
Assay in all cases: growth of human tumour cells (NCI), 48 h
[1] = system: 786-0
[2] = system: A498
[3] = system: A549
[4] = system: ACHN
[5] = system: BT-549
[6] = system: CAKI-1
[7] = system: CCRF-CEM
[8] = system: COLO 205
[9] = system: DU-145
[10] = system: EKVX
[11] = system: HCC 2998
[12] = system: HCT-116
[13] = system: HCT-15
[14] = system: HL-60
[15] = system: HOP-62
[16] = system: HOP-92
[17] = system: HT-29
[18] = system: Hs-578T
[19] = system: IGROV-1
[20] = system: K562
[21] = system: KM12
[22] = system: LOX IMVI
[23] = system: M14
[24] = system: MCF7
[25] = system: MDA-MB-231
[26] = system: MDA-MB-435
[27] = system: MDA-N
[28] = system: MOLT-4
[29] = system: Malme-3M
[30] = system: NCI-H226
[31] = system: NCI-H23
[32] = system: NCI-H460
[33] = system: NCI-H522
[34] = system: NCI/ADR-RES
[35] = system: OVCAR-3
[36] = system: OVCAR-8
[37] = system: PC-3
[38] = system: RPMI-8226
[39] = system: RXF 393
[40] = system: SF-268
[41] = system: SF-295
[42] = system: SF-539
[43] = system: SK-MEL-28
[44] = system: SK-MEL-2
[45] = system: SK-MEL-5
[46] = system: SK-OV-3
[47] = system: SN12C
[48] = system: SNB-19
[49] = system: SNB-75
[50] = system: SR
[51] = system: SW-620
[52] = system: T47D
[53] = system: TK-10
[54] = system: U-251
[55] = system: UACC-257
[56] = system: UACC-62
[57] = system: UO-31
[58] = system: OVCAR-4
[59] = system: OVCAR-5

O=c1oc2ccccc2cc1-c1nc2ccc([N+](=O)[O-])cc2o1
GI50 [1]: > 100 µM (inactive)
GI50 [2]: > 100 µM (inactive)
GI50 [3]: > 100 µM (inactive)
GI50 [4]: 30.1 µM (inactive)
GI50 [5]: > 100 µM (inactive)
GI50 [6]: > 100 µM (inactive)
GI50 [7]: > 100 µM (inactive)
GI50 [8]: > 100 µM (inactive)
GI50 [9]: > 100 µM (inactive)
GI50 [10]: > 100 µM (inactive)
GI50 [11]: > 100 µM (inactive)
GI50 [12]: > 100 µM (inactive)
GI50 [13]: > 100 µM
GI50 [14]: > 100 µM (inactive)
GI50 [15]: 28.1 µM (inactive)
GI50 [16]: > 100 µM (inactive)
GI50 [17]: 67.6 µM (inactive)
GI50 [18]: 84.9 µM (inactive)
GI50 [19]: > 100 µM (inactive)
GI50 [20]: > 100 µM (inactive)
GI50 [21]: > 100 µM (inactive)
GI50 [22]: > 100 µM (inactive)
GI50 [23]: > 100 µM (inactive)
GI50 [24]: 83.8 µM (inactive)
GI50 [25]: > 100 µM (inactive)
GI50 [26]: > 100 µM (inactive)
GI50 [27]: > 100 µM (inactive)
GI50 [28]: > 100 µM (inactive)
GI50 [29]: > 100 µM (inactive)
GI50 [30]: > 100 µM (inactive)
GI50 [31]: > 100 µM (inactive)
GI50 [32]: > 100 µM (inactive)
GI50 [33]: > 100 µM (inactive)
GI50 [34]: > 100 µM (inactive)
GI50 [35]: > 100 µM (inactive)
GI50 [36]: > 100 µM (inactive)
GI50 [37]: > 100 µM (inactive)
GI50 [38]: > 100 µM (inactive)
GI50 [39]: > 100 µM (inactive)
GI50 [40]: > 100 µM (inactive)
GI50 [41]: 83.4 µM (inactive)
GI50 [42]: 65.2 µM (inactive)
GI50 [43]: > 100 µM (inactive)
GI50 [44]: > 100 µM (inactive)
GI50 [45]: > 100 µM (inactive)
GI50 [46]: > 100 µM (inactive)
GI50 [47]: > 100 µM (inactive)
GI50 [48]: 30.2 µM (inactive)
GI50 [49]: > 100 µM (inactive)
GI50 [50]: > 100 µM (inactive)
GI50 [51]: > 100 µM (inactive)
GI50 [52]: > 100 µM (inactive)
GI50 [53]: > 100 µM (inactive)
GI50 [54]: > 100 µM (inactive)
GI50 [55]: > 100 µM (inactive)
GI50 [56]: > 100 µM (inactive)
GI50 [57]: > 100 µM (inactive)

COc1ccc(N2NC(c3ccccc3)(c3ccccc3)C(C)C2=O)cc1 (stereo not given)
GI50 [2]: > 100 µM (inactive)
GI50 [3]: 34.4 µM (inactive)
GI50 [4]: 42.7 µM (inactive)
GI50 [5]: > 100 µM (inactive)
GI50 [6]: 54.2 µM (inactive)
GI50 [7]: 35.6 µM (inactive)
GI50 [8]: 16 µM (inactive)
GI50 [9]: > 100 µM (inactive)
GI50 [10]: 68.7 µM (inactive)
GI50 [11]: > 100 µM (inactive)
GI50 [12]: 43 µM (inactive)
GI50 [13]: 39.5 µM
GI50 [14]: 35.3 µM (inactive)
GI50 [15]: > 100 µM (inactive)
GI50 [16]: 48.5 µM (inactive)
GI50 [17]: 40 µM (inactive)
GI50 [18]: 67.5 µM (inactive)
GI50 [19]: > 100 µM (inactive)
GI50 [20]: 52.1 µM (inactive)
GI50 [21]: 33 µM (inactive)
GI50 [22]: 44 µM (inactive)
GI50 [23]: 57.1 µM (inactive)
GI50 [24]: 25.5 µM (inactive)
GI50 [25]: 52.1 µM (inactive)
GI50 [26]: 57.3 µM (inactive)
GI50 [27]: 39.1 µM (inactive)
GI50 [28]: 49.2 µM (inactive)
GI50 [29]: 61.7 µM (inactive)
GI50 [30]: 49.8 µM (inactive)
GI50 [31]: 65.6 µM (inactive)
GI50 [32]: 29.6 µM (inactive)
GI50 [33]: 43.9 µM (inactive)
GI50 [34]: 48.2 µM (inactive)
GI50 [35]: > 100 µM (inactive)
GI50 [58]: > 100 µM (inactive)
GI50 [59]: 56.2 µM (inactive)
GI50 [36]: 79.8 µM (inactive)
GI50 [37]: 30.3 µM (inactive)
GI50 [38]: > 100 µM (inactive)
GI50 [39]: 52.4 µM (inactive)
GI50 [40]: 88.5 µM (inactive)
GI50 [41]: 36.3 µM (inactive)
GI50 [42]: 85.1 µM (inactive)
GI50 [43]: > 100 µM (inactive)
GI50 [44]: 51.8 µM (inactive)
GI50 [45]: 58.9 µM (inactive)
GI50 [47]: 82.8 µM (inactive)
GI50 [48]: > 100 µM (inactive)
GI50 [49]: > 100 µM (inactive)
GI50 [50]: 96.6 µM (inactive)
GI50 [51]: 58.9 µM (inactive)
GI50 [52]: 39 µM (inactive)
GI50 [53]: 86.7 µM (inactive)
GI50 [54]: 64.3 µM (inactive)
GI50 [55]: 51.3 µM (inactive)
GI50 [56]: 91.2 µM (inactive)
GI50 [57]: 30.1 µM (inactive)

COc1ccc(-c2cc(-c3ccccc3)[nH]c(=S)c2C#N)cc1
GI50 [1]: 27.2 µM (inactive)
GI50 [2]: 15.3 µM (inactive)
GI50 [3]: 18.8 µM (inactive)
GI50 [4]: 33 µM (inactive)
GI50 [5]: 39.6 µM (inactive)
GI50 [6]: 61 µM (inactive)
GI50 [7]: 17.3 µM (inactive)
GI50 [8]: > 10 µM (inactive)
GI50 [9]: 52.2 µM (inactive)
GI50 [10]: 55.8 µM (inactive)
GI50 [11]: 28.2 µM (inactive)
GI50 [12]: 34.9 µM (inactive)
GI50 [13]: 34.7 µM
GI50 [14]: 46.8 µM (inactive)
GI50 [15]: 3.85 µM (inactive)
GI50 [16]: 44.3 µM (inactive)
GI50 [17]: 36.1 µM (inactive)
GI50 [18]: 39.2 µM (inactive)
GI50 [19]: 26.4 µM (inactive)
GI50 [20]: 22.8 µM (inactive)
GI50 [21]: 45.4 µM (inactive)
GI50 [22]: 20.7 µM (inactive)
GI50 [23]: 25.4 µM (inactive)
GI50 [24]: 30.7 µM (inactive)
GI50 [25]: 32.4 µM (inactive)
GI50 [26]: 20.1 µM (inactive)
GI50 [27]: 31.1 µM (inactive)
GI50 [28]: 17.4 µM (inactive)
GI50 [29]: 32.4 µM (inactive)
GI50 [30]: 31.4 µM (inactive)
GI50 [31]: 21.8 µM (inactive)
GI50 [32]: 25.5 µM (inactive)
GI50 [33]: 25.5 µM (inactive)
GI50 [34]: 39.1 µM (inactive)
GI50 [35]: 11.9 µM (inactive)
GI50 [58]: 38.6 µM (inactive)
GI50 [59]: 62.1 µM (inactive)
GI50 [36]: 29.8 µM (inactive)
GI50 [37]: 19.9 µM (inactive)
GI50 [38]: 20.7 µM (inactive)
GI50 [39]: 39.8 µM (inactive)
GI50 [40]: 38.2 µM (inactive)
GI50 [41]: 27.4 µM (inactive)
GI50 [43]: 20 µM (inactive)
GI50 [45]: 16 µM (inactive)
GI50 [46]: 30.8 µM (inactive)
GI50 [47]: 41.2 µM (inactive)
GI50 [48]: 40.4 µM (inactive)
GI50 [49]: 31 µM (inactive)
GI50 [50]: 32.6 µM (inactive)
GI50 [51]: 33 µM (inactive)
GI50 [52]: 8.63 µM (inactive)
GI50 [53]: 76.7 µM (inactive)
GI50 [54]: 25.8 µM (inactive)
GI50 [56]: 19 µM (inactive)
GI50 [57]: 20.6 µM (inactive)
